Consider three molecules from patent US10703717B2, “Water-soluble isatin derivative, and manufacturing method and application thereof” (TIANJIN UNIVERSITY OF SCIENCE & TECHNOLOGY, priority 2016, dated 2020).

Each structure is given as a SMILES string. pIC50: −log10 of the molar value.

For one data set, the system named is HCT116 cells. Briefly: In-vitro anti-tumor activity, MTT assay, human colon cancer HCT116 cells. Type of data set: cell-based. Particulars: HCT-116, 48 h. As to the method:
(§1) Anti-Tumor Activity Determination Method
Preparation of DMEM/F-12 medium: MEM/F-12 medium (Hyclone) was purchased, 500 mL per bottle, 10% fetal bovine serum and 1% streptomycin solution were added in it. That is, 50 mL of fetal bovine serum and 5 mL of streptomycin were added to each flask of the medium. The preparation of the medium was carried out in an ultra-clean workbench and stored in a refrigerator at 4° C.
(§2) Preparation of PBS buffer: Sodium chloride 8 g, potassium chloride 0.2 g, disodium hydrogen phosphate dodecahydrate 2.9 g, potassium dihydrogen phosphate 0.2 g and purified water 800 mL were placed into a 1000 mL conical flask, the mixture was stirred and dissolved to a volume of 1000 mL. After autoclaving, PBS buffer was stored in a refrigerator at 4° C.
(§3) Preparation of MTT solution: 0.5 g MTT dry powder was dissolved in 100 mL PBS buffer. After sterilizing by filtration through a […] filter, it was stored in a refrigerator at −12° C.
(§4) Three kinds of tumor cells were used in the antitumor activity assay of the present invention: human liver cancer cells (HepG2), human leukemia cells (K562) and human colon cancer cells (HCT116).
Activity test using human colon cancer HCT116 cells
The human colon cancer cells (HCT116) were grown in DMEM/F-12 medium supplemented with 10% fetal bovine serum, 1% penicillin/streptomycin and were cultured in an incubator of 5% CO2 at 37° C. The method comprises the following steps:
(1) After counting the cells with a hemocytometer, dilute it to a density of 5×10^4 cells/mL with DMEM/F-12 medium;
(§5) (2) 100 μl cell suspension was added in each well of 96-well plates and incubated at 37° C. for 24 h;
(3) The compound to be tested was diluted to five concentrations: 2 mM, 200 μM, 20 μM, 2 μM, 0.2 μM. Then, 0.5 μL compound of different concentrations was added to each well and incubated at 37° C. for another 48 h;
(4) MTT (5 mg/ml) was added to the well and the plate was further incubated for 4 h at 37° C.;
(§6) (5) Dissolving the cells with DMSO, and the OD values were measured at 490 nm and 630 nm by a microplate reader; […]

The test system of another data set is K562 cells. As to the kind of experiment: In-vitro anti-tumor activity, MTT assay, human leukemia K562 cells. It is filed as cell-based. Particulars: 48 h. The procedure: as §1, §2, §3, §4
Activity test using human leukemia K562 cells
The human leukemia cells (K562) were grown in RPMI1640 medium supplemented with 10% fetal bovine serum, 1% penicillin/streptomycin and were cultured in an incubator of 5% CO2 at 37° C.
The method comprises the following steps:
(1) After counting the cells with a hemocytometer, dilute it to a density of 5×10^4 cells/mL with RPMI1640 medium;
(2) 100 μl cell suspension was added in each well of 96-well plates and incubated at 37° C. for 2 h;
(§7) (3) The compound to be tested was diluted to five concentrations: 2 mM, 200 μM, 20 μM, 2 μM, 0.2 μM. Then, 0.5 μL compound of different concentrations was added to the well and incubated at 37° C. for another 48 h;
(§8) (4) MTT (5 mg/ml) was added to each well and the plate was further incubated for 4 h at 37° C.;
(5) Dissolving the cells with DMSO, and the OD values were measured at 570 nm and 630 nm by a microplate reader;
(6) Process the data by calculating the IC50 value based on the OD values.
On the technique in general: Formazan colour is commonly taken as a measure of viable cells.

A short description of a further data set: Water solubility. It is filed as physicochemical. Particulars: for water solubility, in words: summary of table 1.
A further data set deals with HepG2 cells. As to the kind of experiment: In-vitro anti-tumor activity, MTT assay, human liver cancer HepG2 cells. It is filed as cell-based. Particulars: 48 h. As to the method: as §1
Preparation of low glucose DMEM medium: MEM medium (Hyclone) was purchased with low glucose, 500 mL per bottle, 10% fetal bovine serum and 1% streptomycin solution were added in it. That is, 50 mL of fetal bovine serum and 5 mL of streptomycin were added to each flask of the medium. The preparation of the medium was carried out in an ultra-clean workbench and stored in a refrigerator at 4° C.
as §2, §3, §4
Activity Test Using Human Liver Cancer HepG2 Cells
The human liver cancer cells (HepG2) were grown in DMEM medium supplemented with 10% fetal bovine serum, 1% penicillin/streptomycin and were cultured in an incubator of 5% CO2 at 37° C. The method comprises the following steps:
(1) After counting the cells with a hemocytometer, dilute it to a density of 5×10^4 cells/mL with low glucose DMEM medium;
as §5, §7, §8, §6

The subject of data set [1] is tumor cells (HepG2, K562, HCT116). As to the kind of experiment: In-vitro anti-tumor activity, summary in words over the three tumor cell lines. It is filed as cell-based, human. Particulars: summary of table 1; for cytotoxic / anti-tumor activity, in words: compared with precursor/parent compound.
Text: as §1, §4

The pIC50 is the IC50 on a negative log10 scale, so that one unit is a factor of ten. Higher therefore signals a low IC50. Consider `CC[C@@]1(O)C(=O)OCc2c1cc1n(c2=O)Cc2cc3ccccc3nc2-1` [CPT, camptothecin, reference compound], for which the pIC50 in the data set with HCT116 cells, in the data set on K562 cells and with HepG2 cells was 6.00 to 7.00 in each case. The Water solubility entry in “Water solubility” is recorded as “insoluble”.

For the molecule `COc1ccc(CN2C(=O)C(=O)c3cc(-c4ccc(O)c(CN(C)C)c4)ccc32)cc1` [Compound 1], the pIC50 in the data set on HCT116 cells, in the data set with K562 cells and in the data set with HepG2 cells was 5.00 to 6.00 each time. Also, the “cytotoxic / anti-tumor activity, in words” value in data set [1] is listed as “still retains certain cytotoxic activity”. The molecule also returned a Water solubility in “Water solubility” of more than 10 g/100 g. Further, the “water solubility, in words” value in the data set “Water solubility” is reported as “obviously improved”.

In the data set with HCT116 cells, `COC(=O)/C=C/c1ccc2c(c1)C(=O)C(=O)N2Cc1ccc(O)c(CN(C)C)c1` [Compound 2] had a negative logarithm of the IC50 (pIC50) of more than 8.00. Further, in data set [1], the “activity compared with positive reference substance camptothecin” value is listed as “superior” and the “cytotoxic / anti-tumor activity, in words” value is on record as “greatly improved”. The same molecule had a negative-log IC50 (pIC50) with K562 cells of more than 8.00. In the data set “Water solubility”, the Water solubility is reported as more than 10 g/100 g and the “water solubility, in words” value was “obviously improved”. For the same molecule, the negative-log IC50 (pIC50) with HepG2 cells is 5.00 to 6.00.
